Data reported in patent publication EP4755877A1, “MODIFIED FLAVONE COMPOUNDS AND USE THEREOF” (Suzhou Glenkol Pharma Technology Co., Ltd., priority 2023, dated 2025).
Where two headings read alike, the source gives them in different places.

Legend:
[1] = tested on: PC-12 cells; experiment: Glutamate-induced excitotoxic death of PC-12 cells, survival by propidium iodide/Hoechst staining; format: cell-based, rat; settings: for Enhancement of Cell Survival Rate: PC-12 cells, glutamate-induced death, compound at 100 nM; for EC50: Rattus norvegicus, promotion of PC-12 survival under glutamate stimulation, 30 min pretreatment, 1 pM-100 µM, 24 h glutamate
Experimental: PC-12 cells (a […] cell line derived from rat adrenal medulla) were cultured in DMEM/F12 complete medium until 80-90% confluency. After being digested, collected, and resuspended, the cells were seeded into 24-well plates pre-coated with coverslips at a density of 5×10^4 cells per well. Following 26 hours of cell culture, glutamate-induced excitotoxic cell death modeling was performed. The modeling method was as follows: an appropriate amount of glutamate was weighed and dissolved in DMEM/F12 medium to prepare a stock solution; after filtration, the stock solution was diluted with the same medium, and the cells were administered with the diluted solution by medium replacement. After administration, the cells were further incubated for 24 hours.
Prior to glutamate modeling, cells incubated in the previous step were pretreated with small-molecule compounds listed in Table 1 at concentrations of 1 pM, 10 pM, 100 pM, 1 nM, 10 nM, 100 nM, 1 µM, 10 µM, and 100 µM for 30 minutes, followed by glutamate stimulation.
The cells treated with the compounds were stained with propidium iodide to assess cell death. After the medium was discarded, the cells were washed with PBS. Subsequently, propidium iodide/Hoechst was added. Following incubation for 30 minutes, the staining solution was removed, and the cells were washed with PBS again before being fixed and mounted on slides. Image acquisition was performed under a fluorescence microscope. The propidium iodide-positive cells and Hoechst-positive cells in the collected images were counted to calculate the cell survival rate. The survival rate was calculated using the formula: Cell survival rate = (1 - Number of Propidium Iodide-positive cells / Number of Hoechst-positive cells) × 100%. The gradient concentrations of the small molecule compounds and the corresponding normalized survival rates were imported into Prism software, and EC50 values were calculated using a non-linear regression model. 7,8-dihydroxyflavone was used as the positive control drug. Table 1: Dose-response relationship study of various compounds in promoting PC-12 neurocytes survival
Based on the aforementioned dose-response relationship study of the compounds, the inhibitory effects of different small molecule compounds on glutamate-induced excitotoxic death of PC-12 cells were further compared at the same dose (100 nM). Table 2: Study on the promoting effects of various compounds on PC-12 neurocytes survival

[2] = Pharmacokinetics in rats after intravenous and oral gavage dosing, plasma LC-MS/MS; format: in vivo; settings: rat
Experimental: Preparation of intravenous bolus administration formulations: A graduation line for the final volume was marked on a clean and dry container. An appropriate amount of the test sample was weighed and added to the container to prepare a solution with a final concentration of 1 mg/mL.
Preparation of oral gavage administration formulations: A graduation line for the final volume was marked on a clean and dry container. An appropriate amount of the test sample was weighed and added to the container to prepare a solution with a final concentration of 3 mg/mL.
After preparation, the formulations were stored at room temperature and used on the day of preparation. A total of 2 groups of rats were set up, with […] per group (half male and half female). The compounds were administered to the rats at a dose of 1 mg/kg via intravenous injection and 15 mg/kg via oral gavage, respectively. All animals were allowed free access to food and water.
Intravenous administration: Before administration (0 h) and at 0.083, 0.167, 0.5, 1.0, 2.0, 4.0, 6.0, and 24 h after administration, 0.2 mL of blood samples were collected from the jugular vein and transferred to anticoagulant tubes (pre-cooled in advance for at least 5 minutes). The tubes were gently inverted several times to fully mix the blood with the anticoagulant. The blood samples were centrifuged at 4 °C for 10 minutes to separate the plasma. 95 µ L of plasma was collected and transferred to a centrifuge tube, which was stored in a refrigerator at below -80 °C until analysis.
Single oral gavage administration: Before administration (0 h) and at 0.167, 0.5, 1.0, 2.0, 4.0, 6.0, and 24 h after administration, 0.2 mL of blood samples were collected from the jugular vein and transferred to anticoagulant tubes. The sample processing method was the same as described above.
The concentration of the compounds in plasma was determined by LC-MS/MS, and data acquisition was performed using Analyst 1.6.3 software (AB Sciex). The pharmacokinetic parameters of the rats after administration were calculated using the non-compartmental model in Phoenix WinNonlin software.
7,8-dihydroxyflavone served as the control drug for comparing the pharmacokinetic characteristics of various compound. Table 3: PK parameters of various compound

[3] = both sexes, Sprague-Dawley, SD rats, plasma, 15 mg/kg oral gavage / 1 mg/kg intravenous, table does not state the route
[4] = in vivo, SD rats, plasma, 15 mg/kg oral gavage / 1 mg/kg intravenous, table does not state the route
[5] = in vivo, SD rats, 15 mg/kg oral gavage vs 1 mg/kg intravenous, read-out: Oral Bioavailability F (%)
[6] = in vivo, SD rats, plasma, 15 mg/kg oral gavage / 1 mg/kg intravenous, table does not state the route, read-out: t1/2 (converted)

Compound	Enhancement of Cell Survival Rate [1]	EC50 [1]	AUC(0-t) [2, 4]	Cmax [2, 4]	bioavailability [2, 5]	half-life [2, 6]	other results
O=c1cc(-c2ccccc2)oc2c(O)c(O)ccc12 [7,8-dihydroxyflavone, 7,8-dihydroxyflavone, reference compound]	33.58%	0.159 nM	–	–	–	–	bioavailability ([2]; both sexes, Sprague-Dawley, plasma, SD rats, 15 mg/kg oral gavage vs 1 mg/kg intravenous, read-out: Oral Bioavailability F (%)): 1.9%; AUC(0-t) [2, 3]: 0.1 µM·h; Cmax [2, 3]: 75.1 nM; half-life ([2]; both sexes, Sprague-Dawley, SD rats, plasma, 15 mg/kg oral gavage / 1 mg/kg intravenous, table does not state the route, read-out: t1/2 (converted)): 3.32 h
O=c1cc(-c2ccccc2)oc2c(F)c(O)ccc12 [Compound S1]	–	0.012 nM	0.181 µM·h	94.9 nM	–	–	–
O=C(O)[C@H]1O[C@@H](Oc2c(O)ccc3c(=O)cc(-c4ccccc4)oc23)[C@H](O)[C@@H](O)[C@@H]1O [Compound S7]	–	0.0111 nM	2.36 µM·h	245 nM	66.9%	–	–
O=c1cc(C2CCNCC2)oc2c(O)c(O)ccc12 [Compound S12]	–	< 0.001 nM	0.151 µM·h	113 nM	1.9%	1.84 h	–
[2H]c1c([2H])c([2H])c(-c2cc(=O)c3ccc(O[C@@H]4O[C@H](C(=O)O)[C@@H](O)[C@H](O)[C@H]4O)c(O)c3o2)c([2H])c1[2H] [Compound S25]	–	–	–	3590 nM	52%	5.38 h	–
O=c1cc(C2CCNCC2)oc2c(F)c(O)ccc12 [Compound S26]	–	–	0.252 µM·h	68.1 nM	–	4.54 h	–
O=c1cc(C2CCNCC2)oc2c(O[C@@H]3OC[C@@H](O)[C@H](O)[C@H]3O)c(O)ccc12 [Compound S27]	–	–	–	–	–	–	half-life ([2]; in vivo): 1.77 h
O=c1cc(C2CCNCC2)oc2c(O[C@@H]3O[C@H](CO)[C@@H](O)[C@H](O)[C@H]3O)c(O)ccc12 [Compound S28]	43.06%	–	–	–	–	–	half-life ([2]; in vivo): 16.7 h; bioavailability ([2]; in vivo, po, 15 mg/kg): 2.72%
COc1ccc2c(=O)cc(C3CCNCC3)oc2c1O [Compound S29]	73.51%	–	0.331 µM·h	91.3 nM	3.38%	2.57 h	–
O=c1cc(C2CCNCC2)oc2c(F)c(F)ccc12 [Compound S30]	83.78%	–	10.3 µM·h	1260 nM	112%	11.4 h	–
